In US20120302609A1, “Pyrazolines for the Modulation of PKM2” (Dynamix Pharmaceuticals LTD., priority 2011, published 2012):
Where “and” joins values, the source holds several entries; their conditions need not be identical. Equal entries are not always repeated.

Test system: H1299 Human Non-Small Cell Lung Carcinoma
Assay: H1299 human non-small cell lung carcinoma nude mouse xenograft model, tumor growth delay
Assay type: in vivo, mice
Experimental: The animals were fed ad libitum water (reverse osmosis, 1 ppm Cl) and NIH 31 Modified and Irradiated Lab Diet® consisting of 18.0% crude protein, 5.0% crude fat, and 5.0% crude fiber. The mice were housed on irradiated Enrich-o′ Cobs™ Laboratory Animal Bedding in static microisolators on a 12-hour light cycle at 20-22° C. (68-72° F.) and 40-60% humidity.
H1299 (NCI-H1299) NSCLC cells were obtained from the American Type Culture Collection, which reports the cell line to have originated from a lymph node metastasis and to lack p53 expression. The cell line was maintained as exponentially growing cultures in RPMI-1640 medium supplemented with 10% fetal bovine serum, 2 mM glutamine, 100 units/mL penicillin G sodium, 100 μg/mL streptomycin sulfate, 25 μg/mL gentamicin, 10 mM HEPES, and 0.075% sodium bicarbonate. The tumor cells were cultured in tissue culture flasks in a humidified incubator at 37° C., in an atmosphere of 5% CO2 and 95% air.
H1299 tumor cells were harvested during log phase growth and suspended in cold PBS. Each nude mouse was inoculated subcutaneously in the right flank with 0.2 mL of the cell suspension (1×10^7 cells). The tumors were periodically calipered in two dimensions to monitor size as the mean volume approached the desired 90-130 mm^3 range. Tumor size was calculated by the following formula:
where w=width and l=length, in mm, of the tumor. Tumor weight may be estimated with the assumption that 1 mg is equivalent to 1 mm^3 of tumor volume.
Compound 13A (MW 467.51, code-named XT26) was provided as a powder stored at −20° C., and protected from light during storage and handling. Dosing suspensions, in 0.5% carboxymethyl cellulose and 1% Tween® 80 in deionized water (Vehicle), were prepared fresh for each dose, and kept at 4° C. post formulation. Gemcitabine (Gemzar®, Lilly, 38 mg/mL, Lot # A866884A) was stored at room temperature. A fresh 12 mg/mL gemcitabine dosing solution was prepared on each treatment day by diluting an aliquot of the stock solution with saline.
Dosing began on D1 in four groups of mice (n=12/group in Groups 1, 3, and 4; n=6 in Group 2). XT26 and its vehicle were administered intraperitoneally (i.p.) twice daily for 28 days (b.i.d.×28), starting with the p.m. dose on D1 and ending with the a.m. dose on D29. Gemcitabine was administered i.p. once daily at three-day intervals for four doses (q3d×4). In all groups, the dosing volume of 10 ml/kg (0.2 ml/20 g mouse) was scaled to the weight of each individual animal, as measured twice weekly.
Group 1 mice received the XT26 vehicle b.i.d.×28, and served as the controls for the study. Group 2 received gemcitabine at 120 mg/kg. Group 3 was to receive XT26 at 100 mg/kg b.i.d.×28; on D21, four mice (Animals 1, 3, 4, and 5) erroneously received 200 mg/kg XT26 for their a.m. dose. […] Group 4 dosing at 200 mg/kg resumed on D17 on a qd (once daily)×13 dosing schedule. Because of a scheduling error, the D19 dose for Group 4 mice was omitted; qd dosing occurred on Days 17, 18, and 20-28.
Tumors were calipered twice weekly for the duration of the study, and each animal was euthanized when its neoplasm reached the predetermined endpoint volume (1200 mm^3) or at the end of the study, whichever came first. Animals that exited the study for tumor growth were documented as euthanized for tumor progression (TP), with the date of euthanasia. The time to endpoint (TTE) for each mouse was calculated by the following equation: […]
where TTE is expressed in days, endpoint volume is expressed in mm^3, b is the intercept, and m is the slope of the line obtained by linear regression of a log-transformed tumor growth data set.

[1] = Group 1 vs 3: XT26 ip bid × 28, 100 mg/kg
[2] = XT26 200 mg/kg ip bid × 8, then qd
[3] = XT26 200 mg/kg ip bid × 8, then qd on Days 17, 18, 20-28

COc1ccc([C@@H]2CC(c3ccc(NS(=O)(=O)c4ccc(F)cc4)cc3)=NN2C(C)=O)cc1 [Compound 13A, (S)—N-(4-(1-acetyl-5-(4-methoxyphenyl)-4,5-dihydro-1H-pyrazol-3-yl)phenyl)-4-fluorobenzenesulfonamide]
Are the survival curves sig different? [1]: Yes
Hazard Ratio [1]: 2.315
Median survival Ratio (Group 1 vs 3: vehicle / XT26 100 mg/kg): 0.8022
% TGD (XT26 100 mg/kg ip bid × 28): 24%
Regressions CR (XT26 100 mg/kg ip bid × 28): 0
Regressions PR (XT26 100 mg/kg ip bid × 28): 0
Regressions TFS (XT26 100 mg/kg ip bid × 28): 0
Median TTE (XT26 100 mg/kg ip bid × 28, endpoint 1200 mm^3, 28-day study): 23.2 days
MTV (n) Day 28 (XT26 100 mg/kg ip bid × 28, median tumor volume of animals not at endpoint (n in brackets), 100 mg/kg): 1080 mm^3 and 1080 (3) mm^3
T − C (XT26 100 mg/kg ip bid × 28, vs Group 1 vehicle): 4.5 days
Regressions CR [2]: 0
Regressions PR [2]: 0
Regressions TFS [2]: 0
% TGD [3]: 13%
T − C [3]: 2.5 days
Median TTE (XT26 200 mg/kg ip bid × 8, then qd on Days 17, 18, 20-28, n = 9): 21.2 days
MTV (n) Day 28 (XT26 200 mg/kg ip bid × 8, then qd, animals not at endpoint (n in brackets), 200 mg/kg): 527 mm^3 and 527 (1) mm^3
Median survival (XT26 ip bid × 28, 100 mg/kg (Column B = treated group)): 23.25
survival advantage relative to the vehicle treatment (discontinuous 200 mg/kg XT26 therapy, five mice remaining after D10): little or no survival advantages
